Experimental findings from patent US20250154686A1, “COMPOUND LIBRARY” (CHUGAI SEIYAKU KABUSHIKI KAISHA, priority 2021, published 2025) are described below.

Assay [1] has as its target T1, Human Bcl-2 protein (Homo sapiens, UniProt P10415).
T1 construct: purchased Novus Biologicals
Briefly: Evaluation of binding of compound to Bcl-2 by surface plasmon resonance (SPR), Example 7. Conditions: for equilibrium dissociation constant compared with compound B2Q045-01: SPR, comparison with B2Q045-01. As to the method: (§1) A surface plasmon resonance method was used in order to analyze the binding affinity of the compounds synthesized in Example 1 and Example 6, which are shown in Table AK-01, for Bcl-2. The apparatus used was Biacore T200 (GE Healthcare Japan Corp.), and the running buffer used was HBS (10 mM HEPES-NaOH and 150 mM NaCl, pH 7.4) supplemented with 1 mM DTT, 3 mM EDTA, 0.01% Tween 20 and 4% DMSO. Human Bcl-2 protein (Novus Biologicals) was biotinylated using EZ-Link Sulfo-NHS-LC-LC-biotin (Thermo Fisher scientific Inc.) and immobilized on the surface of Sensor Chip SA (GE Healthcare Japan Corp.). Then, compound solutions having a plurality of concentrations and the running buffer (blank) were added to the Bcl-2-immobilized surface to obtain the binding response of the compounds. Measurement was performed at 15° C.′.
The obtained sensorgrams were treated with Biacore T200 Evaluation Software, and the equilibrium dissociation constant KD of each compound for Bel-2 was determined as shown in the following Table AK-02 and Table AK-03.
A general note: Surface plasmon resonance follows binding to a sensor surface in real time, without labels.

For assay [2], the target named is T1, Human Bcl-2 protein. Briefly: Evaluation of binding of compound to Bcl-2 by surface plasmon resonance (SPR)-2, Example 13. Conditions: for equilibrium dissociation constant KD compared with B2Q045-01 (KD=1.20 μM) or B2Q048-01 (KD=0.480 μM): Biacore T200, 15° C.; for Kd: Biacore T200, biotinylated Bcl-2 immobilized on Sensor Chip SA, 15° C., read-out: Equilibrium dissociation constant KD. As to the method:
as §1, with “12 for Bcl-2,” for “1 and Example 6,”, “13-1.” for “AK-01, for Bcl-2.”, “NHS-PEG4-Biotin” for “Sulfo-NHS-LC-LC-biotin”, “(Cytiva).” for “(GE Healthcare Japan Corp.).”, “C.” for “C.′.”
The obtained sensorgrams were treated with Biacore T200 Evaluation Software, and the equilibrium dissociation constant KD of each compound for Bcl-2 was determined as shown in the following Table 13-2.

Assay [3] addresses T2, Bcl-2 protein (Recombinant Human Bcl-2 Protein) (Homo sapiens, UniProt P10415).
T2 construct: purchased Novus Biologicals NBP2-34889
Kind of assay: AS-MS evaluation of binding of the mixture libraries of Examples 8 and 9 to Bcl-2, ASMS ratio (%), Example 11. Conditions: ASMS ratio, mixtures obtained from Example 9, 10 uM Bcl-2 protein; for AS-MS(%) N1: replicate N1; for AS-MS(%) N2: replicate N2; for AS-MS(%) N3: replicate N3 (additional day); for AS-MS(%) N4: replicate N4 (additional day). As to the method: DMSO solutions (prepared into approximately 5 mM based on calculation from the average molecular weight of each mixture) of the mixtures of each Example shown in Table 11-1-1 were respectively dispensed to 8 wells of MICROPLATE, 96-WELL, PP, V-BOTTOM (Greiner Bio-One International GmbH, 651201). 400 nL each from the 8 wells of the mixtures obtained from Example 8 was dispensed into 3 designated wells while 200 nL each from the 8 wells of the mixtures obtained from Example 9 was dispensed into 3 designated wells, using LABCYTE ECHO® 555 acoustic dispensing system (Beckman Coulter, Inc.). 200 nL each of two types of 10 μM positive controls (B2Q045-01 and B2Q048-01) was dispensed to the mixtures obtained from Example 8. Likewise, 100 nL each of two types of 20 μM positive controls and 400 nL of a DMSO solution by backfill was dispensed to the mixtures obtained from Example 9. Further, Bcl-2 protein (Novus Biologicals, NBP2-34889, Recombinant Human Bcl-2 Protein, Lot E60145051) (19.2 μL) prepared at 5 µM (final protein concentration) for the mixtures obtained from Example 8 and 10 µM (final protein concentration) for the mixtures obtained from Example 9, in advance using a Tris-HCl buffer (25 mM Tris-HCl, pH 7.4, 150 mM NaCl, 0.025% Tween-20, and 1 mM DTT) was added to the well containing the dispensed 1000 compounds or 500 compounds (final compound concentration: 100 nM), and the plate was incubated at 23° C. for 1 hour in the dark. Subsequently, 200 μL of an assay buffer (25 mM Tris-HCl, pH 7.4, 150 mM NaCl, 0.025% Tween-20, and 1 mM DTT) was centrifuged three times at 2000×G at 4° C. for 2 minutes using 96-well MacroSpin column, P-2 Material (Harvard Bioscience, Inc., 74-5655) that had been allowed to swell to condition the 96-well MacroSpin column. Subsequently, 20 μL of the sample thus incubated was added to the 96-well MacroSpin column, P-2 Material after the completion of conditioning, and SEC treatment was performed by centrifugation at 2000×G for 2 minutes. 32 μL of a 1:1 mixed solution of acetonitrile and methanol (LC/MS grade, FUJIFILM Wako Pure Chemical Corp.) was added to a flow-through liquid from SEC, and the mixture was centrifuged at 1800×G at 4° C. for 5 minutes. The supernatant was used as analysis sample ASMS (A). By a similar operation, a sample prepared at 500 compounds/well or 1000 compounds/well and supplemented with only a Tris-HCl buffer containing no Bcl-2 protein was incubated under the same conditions as above, and the same organic solvent as above was added thereto without 96-well MacroSpin column treatment. A supernatant obtained by a centrifugation operation was used as STD (B). Next, by a similar operation, a sample prepared at 1000 compounds/well or 500 compounds/well and supplemented with only a Tris-HCl buffer containing no Bcl-2 protein was incubated under the same conditions as above and treated with 96-well MacroSpin column in the same manner as above, and the same organic solvent as above was added thereto. A supernatant obtained by a centrifugation operation was used as BK (C). These samples were measured by reverse-phase LC/MS.
Then, the samples A, B and C were analyzed for the 1000 compounds or 500 compounds using TraceFinder 5.1 (Thermo Fisher Scientific Inc.) and CHANCE Software (in-house), and an ASMS ratio (%) was calculated according to the following expression.
The mixtures obtained from Example 8 were tested at the number of data of 2 (N1 and N2) in order to ensure reproducibility. The mixtures obtained from Example 9 were tested at the total number of data 4 (N1,N2, N3, and N4) involving the number of data of 2/day (N1 and N2) and data obtained on additional days.

T2 sequence (P10415 whole entry): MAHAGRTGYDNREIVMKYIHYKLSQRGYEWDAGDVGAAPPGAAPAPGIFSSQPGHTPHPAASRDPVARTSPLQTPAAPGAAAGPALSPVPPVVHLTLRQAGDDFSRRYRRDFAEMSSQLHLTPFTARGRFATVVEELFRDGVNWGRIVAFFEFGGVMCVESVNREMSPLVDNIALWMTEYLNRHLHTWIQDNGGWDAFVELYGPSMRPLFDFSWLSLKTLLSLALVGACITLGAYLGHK
T1 sequence (P10415 whole entry): as above

As to `CCOc1cncc(-c2ccc(CN3CCN(c4ccc(C(=O)NS(=O)(=O)c5ccc(NCCSc6ccccc6)c([N+](=O)[O-])c5)cc4)CC3)cc2C)c1` [Compound B2Q048-01, 4-[4-[[4-(5-ethoxypyridin-3-yl)-3-methylphenyl]methyl]piperazin-1-yl]-N-[3-nitro-4-(2-phenylsulfanylethylamino)phenyl]sulfonylbenzamide], at Human Bcl-2 protein [1], the “equilibrium dissociation constant compared with compound B2Q045-01” value is listed as “smaller equilibrium dissociation constant Kp”. The “binding to Bcl-2 confirmed by SPR” value at Human Bcl-2 protein [1] (compounds identified by AS-MS (Example 5), individually synthesized) is “confirmed to bind by SPR”.
Broadly, the Kd is the concentration at which binding is half-saturated. In the case of `CC(C(=O)Nc1ccccc1)c1cc(O)cc(N2CCN(c3ccc(C(=O)NS(=O)(=O)c4ccc(N[C@H](CCN5CCOCC5)CSc5ccccc5)c([N+](=O)[O-])c4)cc3)CC2)c1` (stereo partly shown) [2-2-d1E04-1-0417], on Human Bcl-2 protein [2], the “equilibrium dissociation constant KD compared with B2Q045-01 (KD=1.20 μM) or B2Q048-01 (KD=0.480 μM)” value is “smaller equilibrium dissociation constant KD” and the Kd stood at 582 nM. Further, in assay [3], the “AS-MS(%) N1” value is 70.3%, the “AS-MS(%) N2” value came to 77.8%, the “AS-MS(%) N3” value is 72.8% and the “AS-MS(%) N4” value stood at 71.8%.
Take `CC(C(=O)Nc1ccccc1)c1cc(O)cc(N2CCN(c3ccc(C(=O)NS(=O)(=O)c4ccc(NCCSc5ccccc5)c([N+](=O)[O-])c4)cc3)CC2)c1` (stereo not shown) [2-2-d1E03-1-0417]: the Kd at Human Bcl-2 protein [2] is 7910 nM. Moreover, in assay [3], the “AS-MS(%) N1” value is 34.2%, the “AS-MS(%) N2” value was found to be 33.3%, the “AS-MS(%) N3” value amounted to 44.4% and the “AS-MS(%) N4” value is listed as 38.0%.
For `CCOc1cncc(-c2ccc(CN3CCN(c4ccc(C(=O)NS(=O)(=O)c5ccc(NCCSc6ccccc6)c([N+](=O)[O-])c5)cc4)CC3)c3ccccc23)c1` [Compound B2Q066-01, 4-[4-[[4-(5-ethoxypyridin-3-yl)naphthalen-1-yl]methyl]piperazin-1-yl]-N-[3-nitro-4-(2-phenylsulfanylethylamino)phenyl]sulfonylbenzamide], the “equilibrium dissociation constant compared with compound B2Q045-01” value on Human Bcl-2 protein [1] is “smaller equilibrium dissociation constant Kp”.
`CCOc1cc(N2CCN(c3ccc(C(=O)NS(=O)(=O)c4ccc(N[C@H](CCN5CCOCC5)CSc5ccccc5)c([N+](=O)[O-])c4)cc3)CC2)cc2c1CCCC2C(=O)Nc1ccccc1` (stereo partly shown) [2-2-d1E04-2-0466]: the Kd at Human Bcl-2 protein [2] amounted to 2450 nM. In addition, in assay [3], the “AS-MS(%) N1” value was found to be 53.4%, the “AS-MS(%) N2” value was found to be 45.9%, the “AS-MS(%) N3” value was determined as 33.3% and the “AS-MS(%) N4” value is listed as 36.8%.
For `CC(C(=O)Nc1nc2ccccc2s1)c1cc(O)cc(N2CCN(c3ccc(C(=O)NS(=O)(=O)c4ccc(N[C@H](CCN5CCOCC5)CSc5ccccc5)c([N+](=O)[O-])c4)cc3)CC2)c1` (stereo partly shown) [2-2-d1E04-1-0495], at Human Bcl-2 protein [2], the “equilibrium dissociation constant KD compared with B2Q045-01 (KD=1.20 μM) or B2Q048-01 (KD=0.480 μM)” value is on record as “smaller equilibrium dissociation constant KD” and the Kd is 162 nM. Moreover, in assay [3], the “AS-MS(%) N1” value was 59.4%, the “AS-MS(%) N2” value was 93.2%, the “AS-MS(%) N3” value is reported as 85.8% and the “AS-MS(%) N4” value came out at 69.0%.
Consider `CCOc1cc(C(C)C(=O)Nc2ccc(C)cc2)cc(N2CCN(c3ccc(C(=O)NS(=O)(=O)c4ccc(N[C@H](CCN5CCOCC5)CSc5ccccc5)c([N+](=O)[O-])c4)cc3)CC2)c1` (stereo partly shown) [2-2-d1E04-2-0446], for which, at Human Bcl-2 protein [2], the Kd amounted to 1330 nM. For the same molecule, in assay [3], the “AS-MS(%) N1” value came to 62.1%, the “AS-MS(%) N2” value came to 45.0%, the “AS-MS(%) N3” value amounted to 44.0% and the “AS-MS(%) N4” value came out at 46.2%.
The corresponding values for `CC(C(=O)Nc1nc2ccccc2s1)c1cc(O)cc(N2CCN(c3ccc(C(=O)NS(=O)(=O)c4ccc(NCCSc5ccccc5)c([N+](=O)[O-])c4)cc3)CC2)c1` (stereo not shown) [2-2-d1E03-1-0495] are 5340 nM, 28.9%, 38.1%, 35.6% and 39.3%.
As to `CC(C(=O)Nc1ccc(F)cc1)c1cc(O)cc(N2CCN(c3ccc(C(=O)NS(=O)(=O)c4ccc(NCCSc5ccccc5)c([N+](=O)[O-])c4)cc3)CC2)c1` (stereo not shown) [2-2-d1E03-1-0454], the equilibrium dissociation constant (Kd) at Human Bcl-2 protein [2] came out at 15200 nM. Moreover, in assay [3], the “AS-MS(%) N1” value was found to be 34.7%, the “AS-MS(%) N2” value is on record as 33.4%, the “AS-MS(%) N3” value came to 39.2% and the “AS-MS(%) N4” value is on record as 38.2%.
Regarding `Cc1ccc(NC(=O)C(C)c2cc(O)cc(N3CCN(c4ccc(C(=O)NS(=O)(=O)c5ccc(N[C@H](CCN6CCOCC6)CSc6ccccc6)c([N+](=O)[O-])c5)cc4)CC3)c2)cc1` (stereo partly shown) [2-2-d1E04-1-0446], on Human Bcl-2 protein [2], the “equilibrium dissociation constant KD compared with B2Q045-01 (KD=1.20 μM) or B2Q048-01 (KD=0.480 μM)” value was “smaller equilibrium dissociation constant KD” and the dissociation constant (Kd) is 775 nM. In addition, in assay [3], the “AS-MS(%) N1” value was found to be 57.8%, the “AS-MS(%) N2” value is recorded as 68.3%, the “AS-MS(%) N3” value stood at 60.9% and the “AS-MS(%) N4” value is 58.1%.
With `CCOc1cc(C(C)C(=O)Nc2ccc(F)cc2)cc(N2CCN(c3ccc(C(=O)NS(=O)(=O)c4ccc(N[C@H](CCN5CCOCC5)CSc5ccccc5)c([N+](=O)[O-])c4)cc3)CC2)c1` (stereo partly shown) [2-2-d1E04-2-0454], at Human Bcl-2 protein [2], the “equilibrium dissociation constant KD compared with B2Q045-01 (KD=1.20 μM) or B2Q048-01 (KD=0.480 μM)” value was “smaller equilibrium dissociation constant KD” and the Kd turned out to be 1060 nM. Besides, in assay [3], the “AS-MS(%) N1” value amounted to 36.4%, the “AS-MS(%) N2” value is 42.2%, the “AS-MS(%) N3” value worked out at 58.2% and the “AS-MS(%) N4” value turned out to be 62.7%.
